Assay results from ChEMBL document CHEMBL1641373, “Trishomocubane as a scaffold for the development of selective dopamine transporter (DAT) ligands” (Bioorg Med Chem Lett, 2011).

Assays:
[1] = target: 5-hydroxytryptamine receptor 7 (Homo sapiens) (UniProt P34969); experiment: Inhibition of 5HT7 receptor at 10 uM
[2] = target: 5-hydroxytryptamine receptor 1B (Homo sapiens) (UniProt P28222); experiment: Inhibition of 5HT1B receptor at 10 uM
[3] = target: T1, Alpha-1B adrenergic receptor (Homo sapiens) (UniProt P35368); experiment: Inhibition of Alpha-1B adrenergic receptor at 10 uM
T1 sequence (whole entry): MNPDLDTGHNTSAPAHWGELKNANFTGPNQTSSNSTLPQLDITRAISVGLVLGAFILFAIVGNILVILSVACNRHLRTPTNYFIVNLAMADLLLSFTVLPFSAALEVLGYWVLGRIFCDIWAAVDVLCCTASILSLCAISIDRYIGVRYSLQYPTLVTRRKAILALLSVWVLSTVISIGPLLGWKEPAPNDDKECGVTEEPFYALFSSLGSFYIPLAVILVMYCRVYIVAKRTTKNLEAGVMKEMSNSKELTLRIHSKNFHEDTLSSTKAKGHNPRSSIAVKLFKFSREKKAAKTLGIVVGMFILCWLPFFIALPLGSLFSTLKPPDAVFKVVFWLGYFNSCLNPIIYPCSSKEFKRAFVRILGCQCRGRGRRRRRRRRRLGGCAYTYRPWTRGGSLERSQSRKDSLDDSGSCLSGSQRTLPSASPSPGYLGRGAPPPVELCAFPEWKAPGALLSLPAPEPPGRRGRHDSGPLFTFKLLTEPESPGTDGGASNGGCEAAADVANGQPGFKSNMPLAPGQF

[4] = target: Beta-1 adrenergic receptor (Homo sapiens) (UniProt P08588); experiment: Inhibition of beta1 adrenergic receptor at 10 uM
[5] = target: 5-hydroxytryptamine receptor 1D (Homo sapiens) (UniProt P28221); experiment: Inhibition of 5HT1D receptor at 10 uM
Sequence of 5-hydroxytryptamine receptor 1D (Homo sapiens) (P28221 whole entry): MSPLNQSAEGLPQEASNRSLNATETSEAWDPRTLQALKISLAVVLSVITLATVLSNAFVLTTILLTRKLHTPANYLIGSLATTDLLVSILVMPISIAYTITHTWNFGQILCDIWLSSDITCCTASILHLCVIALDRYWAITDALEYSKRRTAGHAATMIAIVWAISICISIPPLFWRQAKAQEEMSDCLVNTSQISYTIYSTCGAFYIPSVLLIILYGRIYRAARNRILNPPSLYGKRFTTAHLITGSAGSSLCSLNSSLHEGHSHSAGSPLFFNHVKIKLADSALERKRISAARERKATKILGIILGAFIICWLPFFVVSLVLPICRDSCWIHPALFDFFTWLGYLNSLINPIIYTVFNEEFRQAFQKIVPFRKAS

[6] = target: 5-hydroxytryptamine receptor 5A (Homo sapiens) (UniProt P47898); experiment: Inhibition of 5HT5A receptor at 10 uM
[7] = target: Sodium-dependent noradrenaline transporter (Homo sapiens, UniProt P23975); experiment: Displacement of [3H]nisoxetine from human NET expressed in HEK cells; type: cell-based, HEK293; settings: for inhibition: HEK293, concentration not given here
Sequence of Sodium-dependent noradrenaline transporter (P23975 whole entry): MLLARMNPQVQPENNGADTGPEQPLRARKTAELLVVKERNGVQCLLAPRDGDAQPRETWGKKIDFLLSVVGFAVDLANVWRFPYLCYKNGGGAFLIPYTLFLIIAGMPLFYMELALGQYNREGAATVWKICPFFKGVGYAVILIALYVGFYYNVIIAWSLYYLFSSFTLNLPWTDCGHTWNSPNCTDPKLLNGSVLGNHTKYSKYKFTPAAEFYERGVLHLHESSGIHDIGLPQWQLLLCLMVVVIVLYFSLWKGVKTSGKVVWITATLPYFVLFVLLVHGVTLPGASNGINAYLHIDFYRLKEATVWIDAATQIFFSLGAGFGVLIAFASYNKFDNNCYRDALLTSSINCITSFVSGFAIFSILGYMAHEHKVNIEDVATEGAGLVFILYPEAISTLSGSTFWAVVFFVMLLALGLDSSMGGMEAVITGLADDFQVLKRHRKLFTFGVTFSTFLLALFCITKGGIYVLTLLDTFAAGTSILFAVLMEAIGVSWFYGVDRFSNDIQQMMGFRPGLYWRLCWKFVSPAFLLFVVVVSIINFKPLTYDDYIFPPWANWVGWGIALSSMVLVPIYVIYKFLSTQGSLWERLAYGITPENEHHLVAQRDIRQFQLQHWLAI

[8] = target: Beta-2 adrenergic receptor (Homo sapiens) (UniProt P07550); experiment: Inhibition of beta2 adrenergic receptor at 10 uM
Sequence of Beta-2 adrenergic receptor (Homo sapiens) (P07550 whole entry, looked up): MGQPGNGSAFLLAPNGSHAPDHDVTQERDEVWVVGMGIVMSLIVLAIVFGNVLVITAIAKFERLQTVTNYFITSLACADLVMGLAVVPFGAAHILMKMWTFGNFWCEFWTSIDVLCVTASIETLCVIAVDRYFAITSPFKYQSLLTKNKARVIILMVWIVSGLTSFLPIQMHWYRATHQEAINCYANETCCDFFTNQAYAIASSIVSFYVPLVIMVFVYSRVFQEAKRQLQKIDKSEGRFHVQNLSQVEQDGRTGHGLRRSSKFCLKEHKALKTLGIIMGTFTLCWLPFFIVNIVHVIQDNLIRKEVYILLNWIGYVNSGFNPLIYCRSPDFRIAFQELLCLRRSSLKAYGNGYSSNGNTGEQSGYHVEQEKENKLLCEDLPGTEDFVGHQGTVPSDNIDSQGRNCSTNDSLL

[9] = target: T2, Muscarinic acetylcholine receptor M1 (Homo sapiens) (UniProt P11229); experiment: Inhibition of muscarinic M1 receptor at 10 uM
T2 sequence (whole entry): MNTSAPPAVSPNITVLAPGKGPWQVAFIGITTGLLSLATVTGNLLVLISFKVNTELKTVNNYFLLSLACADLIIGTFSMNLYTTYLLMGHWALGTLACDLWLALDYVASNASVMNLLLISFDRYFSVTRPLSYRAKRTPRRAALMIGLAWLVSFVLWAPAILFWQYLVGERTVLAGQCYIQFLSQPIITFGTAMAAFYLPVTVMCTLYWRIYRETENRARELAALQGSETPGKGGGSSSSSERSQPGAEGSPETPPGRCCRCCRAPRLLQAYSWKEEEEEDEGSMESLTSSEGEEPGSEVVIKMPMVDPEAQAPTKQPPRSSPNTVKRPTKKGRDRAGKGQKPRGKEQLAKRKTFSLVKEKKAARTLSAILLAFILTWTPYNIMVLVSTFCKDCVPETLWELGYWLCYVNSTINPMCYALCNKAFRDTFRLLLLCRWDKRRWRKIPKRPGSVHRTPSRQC

[10] = target: T3, Alpha-2A adrenergic receptor (Homo sapiens) (UniProt P08913); experiment: Inhibition of alpha2A adrenergic receptor at 10 uM
T3 sequence (whole entry): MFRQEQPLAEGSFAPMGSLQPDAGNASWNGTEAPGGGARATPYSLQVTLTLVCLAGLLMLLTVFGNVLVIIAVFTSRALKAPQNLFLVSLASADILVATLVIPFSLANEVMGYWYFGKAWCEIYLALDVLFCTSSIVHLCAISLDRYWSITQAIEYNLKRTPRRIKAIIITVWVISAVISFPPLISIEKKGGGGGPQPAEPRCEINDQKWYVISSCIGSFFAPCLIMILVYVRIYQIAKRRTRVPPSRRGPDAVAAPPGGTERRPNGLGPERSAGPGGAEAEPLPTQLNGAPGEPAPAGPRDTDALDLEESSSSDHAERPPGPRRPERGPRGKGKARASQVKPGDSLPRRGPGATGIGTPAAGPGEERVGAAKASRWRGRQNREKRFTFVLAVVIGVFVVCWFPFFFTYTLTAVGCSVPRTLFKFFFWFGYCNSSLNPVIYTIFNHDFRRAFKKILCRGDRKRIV

[11] = target: D(1A) dopamine receptor (Homo sapiens) (UniProt P21728); experiment: Inhibition of dopamine D1 receptor at 10 uM
Sequence of D(1A) dopamine receptor (Homo sapiens) (P21728 whole entry): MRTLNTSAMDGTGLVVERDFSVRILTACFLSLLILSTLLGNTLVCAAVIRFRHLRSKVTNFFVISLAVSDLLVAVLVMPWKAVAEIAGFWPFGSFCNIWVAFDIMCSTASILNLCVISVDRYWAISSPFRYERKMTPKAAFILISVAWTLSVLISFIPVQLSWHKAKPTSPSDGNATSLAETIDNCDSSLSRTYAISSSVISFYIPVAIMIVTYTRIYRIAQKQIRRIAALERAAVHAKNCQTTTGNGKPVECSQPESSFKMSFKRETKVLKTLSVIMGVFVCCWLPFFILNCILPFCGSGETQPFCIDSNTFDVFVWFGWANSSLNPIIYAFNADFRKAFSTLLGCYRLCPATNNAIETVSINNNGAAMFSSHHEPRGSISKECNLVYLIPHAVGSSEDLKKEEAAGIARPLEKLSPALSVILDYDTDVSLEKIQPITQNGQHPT

[12] = target: 5-hydroxytryptamine receptor 6 (Homo sapiens, UniProt P50406); experiment: Inhibition of 5HT6 receptor at 10 uM
Sequence of 5-hydroxytryptamine receptor 6 (P50406 whole entry): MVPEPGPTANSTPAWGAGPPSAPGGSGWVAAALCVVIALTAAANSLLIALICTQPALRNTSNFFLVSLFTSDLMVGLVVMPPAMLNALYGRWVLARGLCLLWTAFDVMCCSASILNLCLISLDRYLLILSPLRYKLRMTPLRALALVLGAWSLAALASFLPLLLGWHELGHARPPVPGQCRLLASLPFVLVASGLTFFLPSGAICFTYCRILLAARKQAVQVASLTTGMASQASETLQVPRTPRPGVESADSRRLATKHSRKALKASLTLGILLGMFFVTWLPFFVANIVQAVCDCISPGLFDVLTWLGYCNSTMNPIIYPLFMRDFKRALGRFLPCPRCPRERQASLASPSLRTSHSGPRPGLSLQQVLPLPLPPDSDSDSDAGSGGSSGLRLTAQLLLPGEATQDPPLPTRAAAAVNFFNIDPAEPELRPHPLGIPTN

Histamine H2 receptor = Histamine H2 receptor (Homo sapiens, UniProt P25021); experiment: Inhibition of H2 receptor
[13] = target: Delta-type opioid receptor (Homo sapiens) (UniProt P41143); experiment: Inhibition of delta opioid receptor at 10 uM
Sequence of Delta-type opioid receptor (Homo sapiens) (P41143 whole entry): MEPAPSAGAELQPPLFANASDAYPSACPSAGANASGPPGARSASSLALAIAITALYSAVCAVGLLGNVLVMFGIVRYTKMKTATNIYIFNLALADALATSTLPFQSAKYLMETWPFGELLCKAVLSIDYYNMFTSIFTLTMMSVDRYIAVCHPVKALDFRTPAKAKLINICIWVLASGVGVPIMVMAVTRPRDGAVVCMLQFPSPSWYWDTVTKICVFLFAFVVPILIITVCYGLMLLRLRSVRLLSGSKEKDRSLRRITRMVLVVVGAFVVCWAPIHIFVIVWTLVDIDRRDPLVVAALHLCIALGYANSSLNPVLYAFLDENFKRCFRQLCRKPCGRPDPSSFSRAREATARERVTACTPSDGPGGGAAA

[14] = target: T4, Muscarinic acetylcholine receptor M4 (Homo sapiens) (UniProt P08173); experiment: Inhibition of muscarinic M4 receptor at 10 uM
T4 sequence (whole entry): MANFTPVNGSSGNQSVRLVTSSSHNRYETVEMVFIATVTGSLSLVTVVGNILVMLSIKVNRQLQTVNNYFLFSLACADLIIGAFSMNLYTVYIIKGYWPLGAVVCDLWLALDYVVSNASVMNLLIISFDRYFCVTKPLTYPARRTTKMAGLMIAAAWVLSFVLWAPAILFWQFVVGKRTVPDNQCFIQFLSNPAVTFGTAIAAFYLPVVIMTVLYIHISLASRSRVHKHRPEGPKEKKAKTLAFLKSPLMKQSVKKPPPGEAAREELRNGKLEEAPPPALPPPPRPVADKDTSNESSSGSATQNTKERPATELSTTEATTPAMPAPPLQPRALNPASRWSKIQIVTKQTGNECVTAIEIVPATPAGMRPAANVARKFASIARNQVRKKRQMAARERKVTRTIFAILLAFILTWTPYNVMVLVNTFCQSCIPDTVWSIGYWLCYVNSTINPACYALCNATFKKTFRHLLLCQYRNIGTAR

[15] = target: 5-hydroxytryptamine receptor 1E (Homo sapiens) (UniProt P28566); experiment: Inhibition of 5HT1E receptor at 10 uM
Sequence of 5-hydroxytryptamine receptor 1E (Homo sapiens) (P28566 whole entry): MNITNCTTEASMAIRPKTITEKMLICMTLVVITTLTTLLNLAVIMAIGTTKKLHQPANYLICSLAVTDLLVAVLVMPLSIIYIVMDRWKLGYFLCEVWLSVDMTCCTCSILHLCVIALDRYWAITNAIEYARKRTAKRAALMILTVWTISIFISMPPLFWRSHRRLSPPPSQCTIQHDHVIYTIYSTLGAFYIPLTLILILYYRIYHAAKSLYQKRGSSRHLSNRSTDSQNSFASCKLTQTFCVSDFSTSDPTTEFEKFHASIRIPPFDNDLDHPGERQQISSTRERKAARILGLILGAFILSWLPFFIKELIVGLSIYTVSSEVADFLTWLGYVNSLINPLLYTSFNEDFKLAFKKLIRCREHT

[16] = target: Histamine H4 receptor (Homo sapiens) (UniProt Q9H3N8); experiment: Inhibition of H4 receptor at 10 uM
Sequence of Histamine H4 receptor (Homo sapiens) (Q9H3N8 whole entry): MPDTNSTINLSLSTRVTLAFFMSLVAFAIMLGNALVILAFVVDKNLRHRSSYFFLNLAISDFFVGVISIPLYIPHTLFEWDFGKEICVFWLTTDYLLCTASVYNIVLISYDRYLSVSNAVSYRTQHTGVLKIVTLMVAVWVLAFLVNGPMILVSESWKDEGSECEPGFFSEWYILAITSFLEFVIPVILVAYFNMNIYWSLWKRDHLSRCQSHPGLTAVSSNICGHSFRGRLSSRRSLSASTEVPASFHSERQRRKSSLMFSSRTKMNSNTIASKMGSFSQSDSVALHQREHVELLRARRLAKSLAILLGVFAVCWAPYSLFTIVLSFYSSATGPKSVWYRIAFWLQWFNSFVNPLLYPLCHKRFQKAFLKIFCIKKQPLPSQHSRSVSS

[17] = target: Mu-type opioid receptor (Homo sapiens) (UniProt P35372); experiment: Inhibition of mu opioid receptor at 10 uM
Sequence of Mu-type opioid receptor (Homo sapiens) (P35372 whole entry): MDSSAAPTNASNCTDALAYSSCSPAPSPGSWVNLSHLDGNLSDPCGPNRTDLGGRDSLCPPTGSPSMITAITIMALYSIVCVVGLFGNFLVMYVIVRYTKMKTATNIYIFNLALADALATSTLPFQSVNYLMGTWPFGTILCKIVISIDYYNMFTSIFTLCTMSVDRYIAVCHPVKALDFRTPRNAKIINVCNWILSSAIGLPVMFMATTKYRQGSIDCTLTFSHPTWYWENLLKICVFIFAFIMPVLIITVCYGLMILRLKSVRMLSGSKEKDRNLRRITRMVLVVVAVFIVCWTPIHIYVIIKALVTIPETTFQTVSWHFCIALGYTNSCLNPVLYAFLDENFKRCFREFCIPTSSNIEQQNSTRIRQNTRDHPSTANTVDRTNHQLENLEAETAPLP

Sequence of 5-hydroxytryptamine receptor 7 (Homo sapiens) (P34969 whole entry): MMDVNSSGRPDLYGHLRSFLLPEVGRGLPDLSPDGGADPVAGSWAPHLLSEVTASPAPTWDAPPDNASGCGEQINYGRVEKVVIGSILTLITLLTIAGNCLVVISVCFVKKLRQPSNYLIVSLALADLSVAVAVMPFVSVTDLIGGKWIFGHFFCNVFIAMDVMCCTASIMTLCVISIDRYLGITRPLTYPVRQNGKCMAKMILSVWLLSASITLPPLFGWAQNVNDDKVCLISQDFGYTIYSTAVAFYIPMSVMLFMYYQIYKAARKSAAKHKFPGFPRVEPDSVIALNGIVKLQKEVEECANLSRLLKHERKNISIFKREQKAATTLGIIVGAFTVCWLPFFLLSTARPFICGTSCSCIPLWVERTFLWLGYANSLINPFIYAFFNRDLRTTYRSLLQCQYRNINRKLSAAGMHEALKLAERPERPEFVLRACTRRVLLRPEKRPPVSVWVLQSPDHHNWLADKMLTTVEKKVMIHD
Sequence of 5-hydroxytryptamine receptor 1B (Homo sapiens) (P28222 whole entry): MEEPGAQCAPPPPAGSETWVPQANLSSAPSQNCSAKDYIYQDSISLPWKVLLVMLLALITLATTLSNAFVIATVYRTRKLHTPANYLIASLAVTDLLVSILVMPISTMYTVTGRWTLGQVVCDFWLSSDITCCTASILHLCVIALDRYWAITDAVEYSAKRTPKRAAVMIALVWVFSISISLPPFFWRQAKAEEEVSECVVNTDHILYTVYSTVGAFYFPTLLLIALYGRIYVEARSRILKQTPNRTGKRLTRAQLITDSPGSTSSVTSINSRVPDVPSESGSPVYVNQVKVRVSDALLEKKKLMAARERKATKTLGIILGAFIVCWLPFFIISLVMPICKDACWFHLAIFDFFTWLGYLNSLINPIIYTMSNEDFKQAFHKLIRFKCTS

| SMILES | inhibition [1] | inhibition [2] | inhibition [3] | inhibition [4] | inhibition [5] | inhibition [6] | Ki [7] | inhibition [8] | inhibition [9] | inhibition [10] | inhibition [11] | inhibition [12] | Ki (Histamine H2 receptor) | inhibition [13] | inhibition [14] | inhibition [15] | inhibition [16] | inhibition [17] | inhibition [7] |
| --- | --- | --- | --- | --- | --- | --- | --- | --- | --- | --- | --- | --- | --- | --- | --- | --- | --- | --- | --- |
| Fc1cccc(CN[C@H]2C3C4CC5C6C4CC3C6C52)c1 (stereo partly drawn) | < 50% | < 50% | < 50% | < 50% | < 50% | < 50% | 5.88 µM | < 50% | < 50% | < 50% | < 50% | < 50% | 2.15 µM | < 50% | < 50% | < 50% | < 50% | < 50% | – |
| Fc1cccc(CCN[C@H]2C3C4CC5C6C4CC3C6C52)c1 (stereo partly drawn) | < 50% | < 50% | < 50% | < 50% | < 50% | < 50% | 3.62 µM | < 50% | < 50% | – | < 50% | – | 4.42 µM | < 50% | – | < 50% | < 50% | < 50% | – |
| CN(CCc1cccc(F)c1)[C@H]1C2C3CC4C5C3CC2C5C41 (stereo partly drawn) | < 50% | < 50% | < 50% | < 50% | < 50% | < 50% | – | < 50% | < 50% | < 50% | < 50% | < 50% | 4.45 µM | < 50% | < 50% | < 50% | < 50% | < 50% | < 50% |
| CN(Cc1cccc(F)c1)[C@H]1C2C3CC4C5C3CC2C5C41 (stereo partly drawn) | < 50% | < 50% | < 50% | < 50% | < 50% | < 50% | – | < 50% | < 50% | < 50% | < 50% | < 50% | – | < 50% | < 50% | < 50% | < 50% | < 50% | < 50% |
